For the data set, the system named is MatTek EpiOcular ocular tissues. Description: MatTek EpiOcular model ocular irritation (MTT cell viability, Example 16). The conditions noted are these: positive control, 10%, all exposure times (5-60 minutes). The format is cell-based. How it is done:
Each of these compositions was diluted at a rate of 2 oz/gal before they were tested using the Epioccular model.
The MatTek EpiOcular™ model can be used to assess the potential ocular irritation of test articles by determining the cell viability of the tissue after exposure to the test articles. The objective of this study was to assess the ocular irritation potential of 1.56% (w/w) 12837.36.1. Control and test article exposure times were 5 minutes, 10 minutes, 20 minutes, 40 minutes and 60 minutes. After the exposures MTT was performed and data was normalized to the negative control, sterile ultrapure water (water purified and deionized˜18.2 MΩ-cm). The positive control, 10% benzalkonium chloride (BC), was effective, reducing cell viability to <10% of control for all exposure times (Tables 2a-e) and FIG. 1). The relative cell viability of ocular tissues treated with 1.56% (w/w) 12837.36.1 was 29.7%, 26.8%, 15.3%, 8.9% and 8.0% after 5, 10, 20, 40 and 60 minute exposures, respectively (Tables 2a-e and FIG. 1), resulting in an ET50 of 1.54 minutes and an estimated in vivo Draize score of 77.2 (Table 1).
The MatTek EipOcular™ model can be used to assess the potential ocular irritation of test articles by determining the cell viability of the tissue after exposure to the test articles. The objective of this study was to assess the ocular irritation potential of 1.56% (w/w) 12837.39.1. […]

In the case of benzalkonium chloride, the cell viability is recorded as < 10 % of control.
